# System: lashes and adjacent hairs
# Assay: Clinical observation of lashes and adjacent hairs in glaucoma patients treated with bimatoprost in only one eye
# Format: in vivo
# Text: In the course of treating patients having glaucoma, treatment may only be appropriate in one eye. […] The lash appearance on the lids of the treated eyes would have appeared quite attractive if it represented a bilateral phenomenon. As a result of its asymmetric nature, the long lashes on one side could be construed as disturbing from a cosmetic standpoint. A systemic examination was preformed as a result of the asymmetric phenomenon. It soon became apparent that this altered appearance was not an isolated finding.
# The changes in the lashes were apparent on gross inspection in several patients once attention was focused on the issue. In those with light colored hair and lashes, the differences were only seen easily with the aid of the high magnification and lighting capabilities of the slit lamp biomicroscope. In the course of glaucoma follow-up examination, attention is generally immediately focused on the eye itself. As a result of the high power magnification needed only one eye is seen at a time and the eye is seen at a high enough power that the lashes are not in focus. At these higher powers, any lash asymmetry between the two eyes is not likely to be noticed except by careful systematic comparison of the lashes and adjacent hairs of the eyelids of the two eyes.
# Observed parameters leading to the conclusion that more robust hair growth occurred in the treatment area following administration of the prostaglandin analogue were multiple. They included increased length of lashed, increased number of lashes along the normal lash line, increased thickness and luster of lashes, increased auxiliary lash-like terminal hair in transitional areas adjacent to areas of normal lash growth, increased auxiliary lash-like terminal hairs at the medial and lateral canthal area, increased pigmentation of the lashes, increased numbers, increased length, as well as increased luster, and thickness of fine hair on the skin of the adjacent lid, and finally, increased perpendicular angulation of lashes and lash-like terminal hairs.
structure (smiles),measurement,setting,value
CCNC(=O)CCC/C=C\C[C@@H]1[C@@H](/C=C/[C@@H](O)CCc2ccccc2)[C@H](O)C[C@@H]1O [bimatoprost],lash appearance in treated eye versus non-treated eye,"a glaucoma patient treated with bimatoprost in one eye, gross examination","longer, thicker, and fuller in the treated eye than in the non-treated eye"
same,differences in the lashes and adjacent hairs of treated side,all patients taking the drug on a unilateral basis for longer than 6 months,Definite differences could be identified to varying degrees
same,"hair growth, conclusion from multiple parameters of hair appearance in treated versus control areas","many subjects, lash length, number, thickness, luster, pigmentation, auxiliary terminal hairs",hair growth is stimulated

# Source: patent publication US20090192151A1, “THERAPEUTIC AMIDES AND RELATED COMPOUNDS” (priority 2008, published 2009)
